Some results are limits rather than exact numbers.

Broadly, the IC50 is the concentration needed to halve the response being measured.

The target of one test is BRM (Homo sapiens, UniProt P51531). Put plainly: ATPase catalytic activity assay of BRM (ADP-Glo). The settings on record: for IC50: read-out: BRM IC50 (μM)*. The format is biochemical. An outline of the steps: (§1)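 Once the enzyme reaction finished, residual ATP is removed with ADP-Glo Reagent over 40 minutes at room temperature. Kinase Detection Reagent then converts product ADP into ATP during a 60-minute room-temperature incubation, and the luciferase signal is read.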
Sequence of BRM (P51531 whole entry): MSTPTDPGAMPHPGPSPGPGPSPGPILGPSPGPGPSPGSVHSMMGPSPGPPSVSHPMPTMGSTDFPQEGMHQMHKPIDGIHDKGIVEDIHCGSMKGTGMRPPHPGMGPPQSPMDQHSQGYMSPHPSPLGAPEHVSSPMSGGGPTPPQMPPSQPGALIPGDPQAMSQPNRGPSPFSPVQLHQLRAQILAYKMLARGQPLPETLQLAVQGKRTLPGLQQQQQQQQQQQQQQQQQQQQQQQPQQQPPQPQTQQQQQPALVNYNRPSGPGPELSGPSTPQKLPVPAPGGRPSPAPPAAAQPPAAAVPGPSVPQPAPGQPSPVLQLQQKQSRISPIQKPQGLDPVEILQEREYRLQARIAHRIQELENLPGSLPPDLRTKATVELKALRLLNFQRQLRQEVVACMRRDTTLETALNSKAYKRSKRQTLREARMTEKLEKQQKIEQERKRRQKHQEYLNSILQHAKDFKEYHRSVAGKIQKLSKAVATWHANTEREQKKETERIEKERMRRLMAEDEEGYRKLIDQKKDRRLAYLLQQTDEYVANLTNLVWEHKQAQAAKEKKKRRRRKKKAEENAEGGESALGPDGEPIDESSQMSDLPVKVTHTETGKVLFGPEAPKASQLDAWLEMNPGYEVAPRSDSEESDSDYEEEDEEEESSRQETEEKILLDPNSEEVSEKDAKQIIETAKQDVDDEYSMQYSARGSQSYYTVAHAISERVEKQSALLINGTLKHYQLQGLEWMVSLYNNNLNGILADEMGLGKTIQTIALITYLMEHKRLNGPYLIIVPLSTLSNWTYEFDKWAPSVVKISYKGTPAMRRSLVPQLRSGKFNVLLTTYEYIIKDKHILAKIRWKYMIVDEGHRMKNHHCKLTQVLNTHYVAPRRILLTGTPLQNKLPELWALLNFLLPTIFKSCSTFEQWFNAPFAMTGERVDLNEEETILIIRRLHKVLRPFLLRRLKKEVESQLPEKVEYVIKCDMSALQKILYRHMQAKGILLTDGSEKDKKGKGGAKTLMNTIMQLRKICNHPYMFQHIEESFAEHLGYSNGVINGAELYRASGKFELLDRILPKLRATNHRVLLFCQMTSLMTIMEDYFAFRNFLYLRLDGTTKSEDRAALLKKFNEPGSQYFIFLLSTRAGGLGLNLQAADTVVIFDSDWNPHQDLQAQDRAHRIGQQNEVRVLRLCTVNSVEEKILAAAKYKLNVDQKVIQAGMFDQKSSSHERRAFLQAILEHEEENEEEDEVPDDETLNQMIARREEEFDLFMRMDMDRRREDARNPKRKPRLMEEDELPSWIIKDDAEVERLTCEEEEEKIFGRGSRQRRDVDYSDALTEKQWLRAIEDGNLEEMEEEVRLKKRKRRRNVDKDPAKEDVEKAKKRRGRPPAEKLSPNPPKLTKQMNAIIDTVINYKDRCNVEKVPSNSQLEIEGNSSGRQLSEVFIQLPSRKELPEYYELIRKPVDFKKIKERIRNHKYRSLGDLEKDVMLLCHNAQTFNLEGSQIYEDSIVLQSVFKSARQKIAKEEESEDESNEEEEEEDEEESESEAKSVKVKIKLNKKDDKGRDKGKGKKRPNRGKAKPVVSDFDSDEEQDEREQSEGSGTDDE
Background: ADP-Glo first removes unused ATP, then detects ADP through luciferase.

The next test has as its target BRG-1 (Homo sapiens, UniProt P51532). As to the kind of experiment: ATPase catalytic activity assay of BRG-1 (ADP-Glo). The format is biochemical. The settings on record: ATPase catalytic activity, ADP-Glo; for IC50: read-out: BRG1 IC50 (μM)*; for Emax: read-out: BRG1 Max % Inhibition. A digest of the protocol: as §1

Sequence of BRG-1 (P51532 whole entry): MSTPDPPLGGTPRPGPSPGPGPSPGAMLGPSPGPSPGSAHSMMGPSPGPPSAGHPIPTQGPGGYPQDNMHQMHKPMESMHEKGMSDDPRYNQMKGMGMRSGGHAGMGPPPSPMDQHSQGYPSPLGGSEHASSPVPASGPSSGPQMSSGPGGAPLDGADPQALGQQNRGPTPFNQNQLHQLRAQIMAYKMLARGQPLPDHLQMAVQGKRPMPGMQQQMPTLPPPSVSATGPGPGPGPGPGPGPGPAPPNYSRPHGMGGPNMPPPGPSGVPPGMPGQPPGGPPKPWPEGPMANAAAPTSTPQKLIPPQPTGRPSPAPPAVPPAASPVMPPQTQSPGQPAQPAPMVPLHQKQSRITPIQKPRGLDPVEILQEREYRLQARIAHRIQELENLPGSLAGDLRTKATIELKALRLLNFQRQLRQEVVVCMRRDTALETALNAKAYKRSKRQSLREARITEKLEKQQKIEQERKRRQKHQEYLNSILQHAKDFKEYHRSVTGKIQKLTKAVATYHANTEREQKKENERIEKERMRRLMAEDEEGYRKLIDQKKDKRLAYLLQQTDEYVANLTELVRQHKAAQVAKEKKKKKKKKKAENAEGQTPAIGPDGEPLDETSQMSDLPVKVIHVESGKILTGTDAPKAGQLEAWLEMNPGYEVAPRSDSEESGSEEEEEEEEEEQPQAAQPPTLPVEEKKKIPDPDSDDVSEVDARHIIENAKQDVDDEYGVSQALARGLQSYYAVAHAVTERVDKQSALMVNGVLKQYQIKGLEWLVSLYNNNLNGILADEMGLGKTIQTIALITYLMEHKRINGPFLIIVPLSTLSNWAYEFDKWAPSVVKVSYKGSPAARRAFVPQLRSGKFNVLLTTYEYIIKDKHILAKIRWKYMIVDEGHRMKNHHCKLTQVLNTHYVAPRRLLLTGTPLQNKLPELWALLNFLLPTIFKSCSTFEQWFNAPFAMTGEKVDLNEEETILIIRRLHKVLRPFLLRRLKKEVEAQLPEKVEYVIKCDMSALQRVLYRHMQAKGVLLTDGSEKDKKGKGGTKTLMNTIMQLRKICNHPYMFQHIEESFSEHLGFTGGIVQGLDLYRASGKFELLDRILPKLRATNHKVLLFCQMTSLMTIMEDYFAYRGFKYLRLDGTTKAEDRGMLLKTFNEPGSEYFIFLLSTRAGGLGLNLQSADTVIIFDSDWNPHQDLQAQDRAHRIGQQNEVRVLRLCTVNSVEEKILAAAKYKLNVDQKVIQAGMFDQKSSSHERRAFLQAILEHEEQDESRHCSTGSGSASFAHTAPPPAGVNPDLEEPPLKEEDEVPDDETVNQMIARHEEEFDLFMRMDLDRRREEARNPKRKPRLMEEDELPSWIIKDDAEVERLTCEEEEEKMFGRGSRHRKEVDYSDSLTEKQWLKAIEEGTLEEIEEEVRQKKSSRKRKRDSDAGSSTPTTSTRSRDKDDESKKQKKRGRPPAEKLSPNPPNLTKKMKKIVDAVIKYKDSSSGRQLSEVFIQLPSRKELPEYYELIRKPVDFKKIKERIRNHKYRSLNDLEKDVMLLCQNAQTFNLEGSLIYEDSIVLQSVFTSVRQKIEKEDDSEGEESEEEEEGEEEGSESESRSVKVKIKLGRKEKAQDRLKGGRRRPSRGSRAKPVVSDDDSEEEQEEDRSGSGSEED

Take `Cn1ccc(-c2cccc(-c3csc(NC(=O)CNC(=O)c4ccc5c(c4)[C@@](C)(CO)CC5)n3)n2)n1` [Compound 192, (3S)-3-(hydroxymethyl)-3-methyl-N-[2-[[4-[6-(1-methylpyrazol-3-yl)-2-pyridyl]thiazol-2-yl]amino]-2-oxo-ethyl]indane-5-carboxamide]: on BRM, the “BRM Max % Inhibition” value is listed as greater than 90% and the concentration for half-maximal inhibition (IC50) fell in the range of 0.1 to 1 µM. In addition, on BRG-1, the IC50 lay in the range of 1 to 5 µM and the Emax is greater than 60%.

Regarding `C[C@@H]1CN(c2cccc(-c3csc(NC(=O)CNC(=O)c4ccc5c(c4)C4(CCCC4=O)CC5)n3)c2)C[C@H](C)O1` (stereo partly drawn) [Compound 195, N-(2-((4-(3-((cis)-2,6-dimethylmorpholino)phenyl)thiazol-2-yl)amino)-2-oxoethyl)-2-oxo-2′,3′-dihydrospiro[cyclopentane-1,1′-indene]-6′-carboxamide], at BRM, the “BRM Max % Inhibition” value was greater than 95% and the IC50 was 0.1 to 1 µM. Moreover, on BRG-1, the IC50 fell in the range of 1 to 5 µM and the Emax was greater than 70%.

With `CC(C)(C)c1cccc(C(=O)NCC(=O)Nc2nc(-c3cccc(N4CCC4)c3)cs2)c1` [Compound 196, N-(2-((4-(3-(azetidin-1-yl)phenyl)thiazol-2-yl)amino)-2-oxoethyl)-3-(tert-butyl)benzamide], on BRM, the “BRM Max % Inhibition” value is greater than 90% and the half-maximal inhibitory concentration (IC50) was in the range of 0.1 to 1 µM. Also, at BRG-1, the IC50 is 1 to 5 µM and the Emax is greater than 60%.

On to `C[C@@]1(CO)CCc2c(C(=O)NCC(=O)Nc3nc(-c4cccc(-c5ccncc5)c4)cs3)cccc21` [Compound 197], for which the 50% inhibitory concentration (IC50) on BRM is 1 to 5 µM. In addition, at BRG-1, the half-maximal inhibitory concentration (IC50) was greater than 5 µM and the Emax was less than 30%.

For the compound `C[C@@H]1CN(c2cc(F)cc(-c3csc(NC(=O)CNC(=O)c4ccc(F)c(C(C)(C)CO)c4)n3)c2)C[C@H](C)O1` [Compound 198, N-(2-((4-(3-((cis)-2,6-dimethylmorpholino)-5-fluorophenyl)thiazol-2-yl)amino)-2-oxoethyl)-4-fluoro-3-(1-hydroxy-2-methylpropan-2-yl)benzamide], on BRM, the “BRM Max % Inhibition” value is recorded as greater than 95% and the half-inhibitory concentration (IC50) is less than 0.1 µM. On BRG-1, the IC50 was 0.1 to 1 µM and the Emax was greater than 95%.

For the compound `C[C@@H]1CN(c2cc(F)cc(-c3csc(NC(=O)CNC(=O)c4ccc(Cl)c(C(C)(C)CO)c4)n3)c2)C[C@H](C)O1` [Compound 199, 4-chloro-N-[2-[[4-[3-[(cis)-2,6-dimethylmorpholin-4-yl]-5-fluoro-phenyl]thiazol-2-yl]amino]-2-oxo-ethyl]-3-(2-hydroxy-1,1-dimethyl-ethyl)benzamide], on BRM, the “BRM Max % Inhibition” value is greater than 95% and the concentration for half-maximal inhibition (IC50) was less than 0.1 µM. Moreover, at BRG-1, the IC50 was less than 0.1 µM and the Emax was greater than 95%.

As for `C[C@@H]1CN(c2cccc(-c3csc(NC(=O)CNC(=O)c4ccc(F)c(C(C)(C)CO)c4)n3)c2)C[C@H](C)O1` [Compound 200, N-(2-((4-(3-((cis)-2,6-dimethylmorpholino)phenyl)thiazol-2-yl)amino)-2-oxoethyl)-4-fluoro-3-(1-hydroxy-2-methylpropan-2-yl)benzamide], on BRM, the “BRM Max % Inhibition” value was greater than 95% and the half-inhibitory concentration (IC50) is less than 0.1 µM. For the same compound, at BRG-1, the half-maximal inhibitory concentration (IC50) lay in the range of 0.1 to 1 µM and the Emax was greater than 80%.

For `Cc1cc(-c2cccc(-c3csc(NC(=O)CNC(=O)c4ccc(C)c(C(C)(C)CN)c4)n3)n2)ncn1` [Compound 201, 3-(2-amino-1,1-dimethyl-ethyl)-4-methyl-N-[2-[[4-[6-(6-methylpyrimidin-4-yl)-2-pyridyl]thiazol-2-yl]amino]-2-oxo-ethyl]benzamide], on BRM, the “BRM Max % Inhibition” value is on record as greater than 95% and the concentration for half-maximal inhibition (IC50) was less than 0.1 µM. Besides, at BRG-1, the half-inhibitory concentration (IC50) fell in the range of 0.1 to 1 µM and the Emax is greater than 90%.

For the compound `C[C@@H]1CN(c2cccc(-c3csc(NC(=O)CNC(=O)c4cc(C(C)(C)C)ccn4)n3)c2)C[C@H](C)O1` [Compound 202, 4-tert-butyl-N-[2-[[4-[3-[(cis)-2,6-dimethylmorpholin-4-yl]phenyl]thiazol-2-yl]amino]-2-oxo-ethyl]pyridine-2-carboxamide], on BRM, the “BRM Max % Inhibition” value is reported as greater than 90% and the IC50 was 0.1 to 1 µM. On BRG-1, the IC50 was in the range of 1 to 5 µM and the Emax was greater than 80%.

Turning to `Cc1cc(-c2cccc(-c3csc(NC(=O)CNC(=O)c4ccc5c(c4)[C@](C)(CO)CC5)n3)n2)ncn1` [Compound 203, (3R)-3-(hydroxymethyl)-3-methyl-N-[2-[[4-[6-(6-methylpyrimidin-4-yl)-2-pyridyl]thiazol-2-yl]amino]-2-oxo-ethyl]indane-5-carboxamide], at BRM, the “BRM Max % Inhibition” value is reported as greater than 95% and the IC50 was less than 0.1 µM. At BRG-1, the 50% inhibitory concentration (IC50) fell in the range of 0.1 to 1 µM and the Emax is greater than 95%.

For the compound `Cc1cc(-c2cccc(-c3csc(NC(=O)CNC(=O)c4ccc5c(c4)[C@@](C)(CO)CC5)n3)n2)ncn1` [Compound 204, (3S)-3-(hydroxymethyl)-3-methyl-N-[2-[[4-[6-(6-methylpyrimidin-4-yl)-2-pyridyl]thiazol-2-yl]amino]-2-oxo-ethyl]indane-5-carboxamide], on BRM, the “BRM Max % Inhibition” value is recorded as greater than 95% and the IC50 was less than 0.1 µM. Further, at BRG-1, the IC50 fell in the range of 0.1 to 1 µM and the Emax is greater than 90%.

As to `C[C@@H]1CN(c2cccc(-c3csc(NC(=O)CNC(=O)c4ccnc(C(C)(C)C)c4)n3)c2)C[C@H](C)O1` [Compound 205, 2-(tert-butyl)-N-(2-((4-(3-((cis)-2,6-dimethylmorpholino)phenyl)thiazol-2-yl)amino)-2-oxoethyl)isonicotinamide], on BRM, the “BRM Max % Inhibition” value was greater than 95% and the IC50 lay in the range of 0.1 to 1 µM. At BRG-1, the IC50 fell in the range of 1 to 5 µM and the Emax was greater than 70%.

On to `Cc1nccc(-c2cccc(-c3csc(NC(=O)CNC(=O)c4ccc(C)c(C(C)(C)CN)c4)n3)n2)n1` [Compound 206, 3-(2-amino-1,1-dimethyl-ethyl)-4-methyl-N-[2-[[4-[6-(2-methylpyrimidin-4-yl)-2-pyridyl]thiazol-2-yl]amino]-2-oxo-ethyl]benzamide], for which, at BRM, the “BRM Max % Inhibition” value was greater than 95% and the 50% inhibitory concentration (IC50) lay within 0.1 to 1 µM. On BRG-1, the IC50 lay within 1 to 5 µM and the Emax is greater than 70%.

On to `Cc1cc(-c2cccc(-c3csc(NC(=O)CNC(=O)c4ccc5c(c4)[C@@](C)(CO)CCC5)n3)n2)ncn1` [Compound 207, (S)-8-(hydroxymethyl)-8-methyl-N-(2-((4-(6-(6-methylpyrimidin-4-yl)pyridin-2-yl)thiazol-2-yl)amino)-2-oxoethyl)-5,6,7,8-tetrahydronaphthalene-2-carboxamide], for which, at BRM, the “BRM Max % Inhibition” value is greater than 90% and the half-inhibitory concentration (IC50) is 0.1 to 1 µM. In addition, on BRG-1, the IC50 is greater than 5 µM and the Emax is greater than 50%.

`Cc1cc(-c2cccc(-c3csc(NC(=O)CNC(=O)c4ccc5c(c4)[C@](C)(CO)CCC5)n3)n2)ncn1` [Compound 208, (R)-8-(hydroxymethyl)-8-methyl-N-(2-((4-(6-(6-methylpyrimidin-4-yl)pyridin-2-yl)thiazol-2-yl)amino)-2-oxoethyl)-5,6,7,8-tetrahydronaphthalene-2-carboxamide]: on BRM, the “BRM Max % Inhibition” value is given as greater than 95% and the half-inhibitory concentration (IC50) fell in the range of 0.1 to 1 µM. Moreover, at BRG-1, the half-maximal inhibitory concentration (IC50) was in the range of 1 to 5 µM and the Emax was greater than 60%.

With `CC(C)(CN)c1cccc(C(=O)NCC(=O)Nc2nc(-c3cccc(-c4cccc(CN)c4)c3)cs2)c1` [Compound 209, 3-(2-amino-1,1-dimethyl-ethyl)-N-[2-[[4-[3-[3-(aminomethyl)phenyl]phenyl]thiazol-2-yl]amino]-2-oxo-ethyl]benzamide], on BRM, the “BRM Max % Inhibition” value is listed as greater than 90% and the half-maximal inhibitory concentration (IC50) lay within 0.1 to 1 µM. Also, at BRG-1, the half-maximal inhibitory concentration (IC50) is 1 to 5 µM and the Emax is greater than 50%.

On to `CC1(C)c2cc(C(=O)NCC(=O)Nc3nc(-c4cccc(-c5ccncc5)c4)cs3)ccc2C[C@H]1N` [Compound 210, (R)-2-amino-3,3-dimethyl-N-(2-oxo-2-((4-(3-(pyridin-4-yl)phenyl)thiazol-2-yl)amino)ethyl)-2,3-dihydro-1H-indene-5-carboxamide], for which, at BRM, the “BRM Max % Inhibition” value is given as greater than 95% and the IC50 was less than 0.1 µM. Further, on BRG-1, the half-inhibitory concentration (IC50) was 0.1 to 1 µM and the Emax was greater than 80%.

In the case of `Cc1nccc(-c2cccc(-c3csc(NC(=O)CNC(=O)c4ccc5c(c4)[C@@](C)(CO)CCC5)n3)n2)n1` [Compound 211, (4S)-4-(hydroxymethyl)-4-methyl-N-[2-[[4-[6-(2-methylpyrimidin-4-yl)-2-pyridyl]thiazol-2-yl]amino]-2-oxo-ethyl]tetralin-6-carboxamide], at BRM, the “BRM Max % Inhibition” value is given as greater than 80% and the IC50 was in the range of 0.1 to 1 µM. On BRG-1, the 50% inhibitory concentration (IC50) was greater than 5 µM and the Emax is greater than 40%.

As to `Cc1nccc(-c2cccc(-c3csc(NC(=O)CNC(=O)c4ccc5c(c4)[C@](C)(CO)CCC5)n3)n2)n1` [Compound 212, (4R)-4-(hydroxymethyl)-4-methyl-N-[2-[[4-[6-(2-methylpyrimidin-4-yl)-2-pyridyl]thiazol-2-yl]amino]-2-oxo-ethyl]tetralin-6-carboxamide], at BRM, the “BRM Max % Inhibition” value is on record as greater than 70% and the half-inhibitory concentration (IC50) lay within 0.1 to 1 µM. Further, on BRG-1, the IC50 is greater than 5 µM and the Emax is less than 30%.

Regarding `Cc1nccc(-c2cccc(-c3csc(NC(=O)CNC(=O)c4ccc5c(c4)[C@@](C)(CO)CC5)n3)n2)n1` [Compound 214], on BRM, the “BRM Max % Inhibition” value is greater than 90% and the half-inhibitory concentration (IC50) was in the range of 0.1 to 1 µM. Also, at BRG-1, the half-maximal inhibitory concentration (IC50) lay in the range of 0.1 to 1 µM and the Emax is greater than 80%.

With `Cc1nccc(-c2cccc(-c3csc(NC(=O)CNC(=O)c4ccc5c(c4)[C@](C)(CO)CC5)n3)n2)n1` [Compound 215], on BRM, the “BRM Max % Inhibition” value was greater than 95% and the IC50 was less than 0.1 µM. In addition, on BRG-1, the IC50 fell in the range of 0.1 to 1 µM and the Emax was greater than 80%.

(Values after patent US12685735B2 (Foghorn Therapeutics Inc., priority 2020, dated 2026).)
